Results as given in publication PMC5752595 (Molecular cancer therapeutics, 2017).

Key:
Assay in all cases: in vitro kinase assay
FER = FER (Homo sapiens, UniProt P16591); format: biochemical
OSR1 = OSR1 (Homo sapiens, UniProt O95747); format: biochemical
RSK2 = RSK2 (Homo sapiens, UniProt P51812); format: biochemical
RSK1 = RSK1 (Homo sapiens, UniProt Q15418); format: biochemical
AMPK = format: biochemical, Homo sapiens; settings: read-out: Ceritinib
CAMKK2 = CAMKK2 (Homo sapiens, UniProt Q96RR4); format: biochemical
Sequence of CAMKK2 (Q96RR4 2-588): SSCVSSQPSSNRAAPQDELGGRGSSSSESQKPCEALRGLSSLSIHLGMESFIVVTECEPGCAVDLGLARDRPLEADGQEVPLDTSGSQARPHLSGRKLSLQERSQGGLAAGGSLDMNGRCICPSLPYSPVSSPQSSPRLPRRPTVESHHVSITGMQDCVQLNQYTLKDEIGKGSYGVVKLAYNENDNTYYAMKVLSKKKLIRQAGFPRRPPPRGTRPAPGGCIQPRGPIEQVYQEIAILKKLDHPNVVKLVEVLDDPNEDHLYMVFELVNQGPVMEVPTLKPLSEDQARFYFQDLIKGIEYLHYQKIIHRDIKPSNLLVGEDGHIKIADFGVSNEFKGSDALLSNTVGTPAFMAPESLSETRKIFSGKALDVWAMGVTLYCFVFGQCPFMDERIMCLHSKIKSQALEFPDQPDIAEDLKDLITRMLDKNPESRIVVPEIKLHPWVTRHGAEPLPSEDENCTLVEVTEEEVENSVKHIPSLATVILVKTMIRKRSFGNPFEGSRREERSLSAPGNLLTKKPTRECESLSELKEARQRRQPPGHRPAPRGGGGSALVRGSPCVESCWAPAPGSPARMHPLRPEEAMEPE

Sequence of OSR1 (O95747 2-527): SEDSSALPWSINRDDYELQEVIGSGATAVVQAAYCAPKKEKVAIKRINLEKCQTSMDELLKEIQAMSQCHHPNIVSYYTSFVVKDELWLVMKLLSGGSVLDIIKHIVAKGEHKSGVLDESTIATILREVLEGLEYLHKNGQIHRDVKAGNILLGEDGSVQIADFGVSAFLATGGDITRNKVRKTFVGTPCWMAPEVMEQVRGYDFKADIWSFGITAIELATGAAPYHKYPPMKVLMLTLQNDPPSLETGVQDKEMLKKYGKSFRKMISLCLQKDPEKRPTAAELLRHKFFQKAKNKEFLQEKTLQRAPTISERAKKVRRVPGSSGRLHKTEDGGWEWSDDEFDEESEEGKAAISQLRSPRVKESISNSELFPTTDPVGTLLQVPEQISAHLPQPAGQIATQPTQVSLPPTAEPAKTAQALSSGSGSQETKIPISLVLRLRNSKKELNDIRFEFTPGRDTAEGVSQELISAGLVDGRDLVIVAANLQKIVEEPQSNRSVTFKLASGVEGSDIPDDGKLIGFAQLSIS
Sequence of RSK2 (P51812 whole entry): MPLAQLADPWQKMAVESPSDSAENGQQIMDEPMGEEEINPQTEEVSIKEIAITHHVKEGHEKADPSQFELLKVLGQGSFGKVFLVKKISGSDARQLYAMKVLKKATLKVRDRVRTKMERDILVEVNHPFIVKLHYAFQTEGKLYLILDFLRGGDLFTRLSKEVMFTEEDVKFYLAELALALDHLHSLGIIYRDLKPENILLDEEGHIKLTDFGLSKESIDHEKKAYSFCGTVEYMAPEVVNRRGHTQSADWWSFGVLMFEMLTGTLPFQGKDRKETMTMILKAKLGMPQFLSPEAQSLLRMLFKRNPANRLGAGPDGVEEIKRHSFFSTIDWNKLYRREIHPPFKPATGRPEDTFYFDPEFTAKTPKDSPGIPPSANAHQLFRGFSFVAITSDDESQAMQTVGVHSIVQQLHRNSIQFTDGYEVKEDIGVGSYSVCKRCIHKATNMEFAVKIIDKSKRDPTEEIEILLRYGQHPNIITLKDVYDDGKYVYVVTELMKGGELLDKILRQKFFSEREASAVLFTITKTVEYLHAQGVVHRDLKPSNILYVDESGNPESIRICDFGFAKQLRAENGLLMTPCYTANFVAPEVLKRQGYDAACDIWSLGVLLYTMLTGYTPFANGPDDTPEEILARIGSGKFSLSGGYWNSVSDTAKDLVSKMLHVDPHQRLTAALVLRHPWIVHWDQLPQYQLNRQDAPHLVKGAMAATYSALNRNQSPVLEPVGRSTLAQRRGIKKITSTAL
Sequence of FER (P16591 whole entry): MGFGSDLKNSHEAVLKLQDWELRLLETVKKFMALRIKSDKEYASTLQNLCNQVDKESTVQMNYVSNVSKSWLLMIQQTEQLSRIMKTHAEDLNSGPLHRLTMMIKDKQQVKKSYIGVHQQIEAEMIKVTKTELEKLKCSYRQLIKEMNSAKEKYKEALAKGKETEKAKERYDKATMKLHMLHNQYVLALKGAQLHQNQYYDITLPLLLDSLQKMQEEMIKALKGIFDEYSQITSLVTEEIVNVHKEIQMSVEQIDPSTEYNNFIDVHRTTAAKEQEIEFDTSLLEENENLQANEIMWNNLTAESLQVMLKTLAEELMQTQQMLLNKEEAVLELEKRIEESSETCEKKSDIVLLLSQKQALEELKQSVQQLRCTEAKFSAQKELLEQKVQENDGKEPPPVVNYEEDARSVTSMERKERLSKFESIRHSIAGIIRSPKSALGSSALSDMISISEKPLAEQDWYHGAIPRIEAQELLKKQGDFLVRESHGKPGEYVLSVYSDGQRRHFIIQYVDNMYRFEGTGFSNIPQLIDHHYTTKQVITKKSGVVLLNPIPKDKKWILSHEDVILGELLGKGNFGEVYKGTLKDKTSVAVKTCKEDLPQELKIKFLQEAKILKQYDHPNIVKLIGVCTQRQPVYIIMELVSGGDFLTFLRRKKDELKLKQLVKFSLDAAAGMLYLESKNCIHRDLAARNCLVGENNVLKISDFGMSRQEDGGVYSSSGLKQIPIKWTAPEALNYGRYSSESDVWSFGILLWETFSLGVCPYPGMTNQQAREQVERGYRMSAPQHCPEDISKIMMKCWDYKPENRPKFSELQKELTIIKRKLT
Sequence of RSK1 (Q15418 whole entry): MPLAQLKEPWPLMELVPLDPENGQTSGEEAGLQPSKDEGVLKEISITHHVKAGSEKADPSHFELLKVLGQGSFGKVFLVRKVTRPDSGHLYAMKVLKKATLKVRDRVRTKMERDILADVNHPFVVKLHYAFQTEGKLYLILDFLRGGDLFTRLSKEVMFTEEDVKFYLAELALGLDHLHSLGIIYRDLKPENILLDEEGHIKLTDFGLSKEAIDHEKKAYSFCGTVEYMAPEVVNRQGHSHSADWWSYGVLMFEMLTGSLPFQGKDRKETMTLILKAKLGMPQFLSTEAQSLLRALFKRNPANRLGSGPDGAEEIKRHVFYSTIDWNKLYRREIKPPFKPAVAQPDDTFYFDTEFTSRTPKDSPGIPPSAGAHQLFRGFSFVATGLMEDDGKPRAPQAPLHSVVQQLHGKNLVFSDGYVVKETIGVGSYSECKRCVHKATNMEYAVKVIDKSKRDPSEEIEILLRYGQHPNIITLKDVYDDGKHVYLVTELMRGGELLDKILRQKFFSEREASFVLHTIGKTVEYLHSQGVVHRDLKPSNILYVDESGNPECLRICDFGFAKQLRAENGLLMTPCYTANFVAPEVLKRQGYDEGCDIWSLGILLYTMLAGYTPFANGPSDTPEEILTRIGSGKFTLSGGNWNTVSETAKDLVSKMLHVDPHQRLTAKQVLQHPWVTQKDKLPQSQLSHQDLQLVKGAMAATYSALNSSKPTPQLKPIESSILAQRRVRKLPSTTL

IC50 (FER): 11.7 nM | IC50 (OSR1): 881 nM | IC50 (RSK2): 418 nM | IC50 (RSK1): 966 nM | IC50 (AMPK): 2360 nM | IC50 (CAMKK2): 75.3 nM
SMILES: Cc1cc(Nc2ncc(Cl)c(Nc3ccccc3S(=O)(=O)C(C)C)n2)c(OC(C)C)cc1C1CCNCC1 [ceritinib]
